Patent US20240182531A1, “KV1.3 Blockers” (priority 2021, published 2024)
Where a SMILES comes first, the peptide text is derived from it. Bridges are numbered along the chain shown (N, C = ends).

Assays:
human Kv1.1 = biological target: T1, human Kv1.1 (Homo sapiens, UniProt Q09470); assay: cell-based; details: ratio of patch clamp IC50 values
T1 construct: expressed in transfected cells; host or cells: CHO

human Kv1.2 = biological target: T2, human Kv1.2 (Homo sapiens, UniProt P16389); assay: cell-based; details: ratio of patch clamp IC50 values
T2 construct: expressed in transfected cells; host or cells: CHO

human Kv1.6 = biological target: T3, human Kv1.6 (Homo sapiens, UniProt P17658); assay: cell-based; details: ratio of patch clamp IC50 values
T3 construct: expressed in transfected cells; host or cells: CHO

Rat whole blood = Rat whole blood (Rattus norvegicus, UniProt P15384); type: cell-based; details: IL-17A release, thapsigargin, 24 Hr, at least 2 replicates
Sequence of Rat whole blood (P15384 whole entry): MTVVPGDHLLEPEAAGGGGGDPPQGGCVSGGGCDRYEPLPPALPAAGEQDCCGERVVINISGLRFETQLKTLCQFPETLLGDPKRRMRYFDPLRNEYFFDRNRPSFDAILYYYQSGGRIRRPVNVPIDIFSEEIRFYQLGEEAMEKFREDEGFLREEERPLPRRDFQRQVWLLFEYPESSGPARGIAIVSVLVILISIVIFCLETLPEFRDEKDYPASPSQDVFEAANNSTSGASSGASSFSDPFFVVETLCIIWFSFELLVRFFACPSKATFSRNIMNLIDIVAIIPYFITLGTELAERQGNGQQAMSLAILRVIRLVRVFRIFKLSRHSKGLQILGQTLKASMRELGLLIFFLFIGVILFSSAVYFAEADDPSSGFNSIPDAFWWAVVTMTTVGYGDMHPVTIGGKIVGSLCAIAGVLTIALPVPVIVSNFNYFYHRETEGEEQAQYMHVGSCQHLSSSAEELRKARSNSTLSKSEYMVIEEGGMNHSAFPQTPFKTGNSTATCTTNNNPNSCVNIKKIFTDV

T1 sequence (Q09470 whole entry): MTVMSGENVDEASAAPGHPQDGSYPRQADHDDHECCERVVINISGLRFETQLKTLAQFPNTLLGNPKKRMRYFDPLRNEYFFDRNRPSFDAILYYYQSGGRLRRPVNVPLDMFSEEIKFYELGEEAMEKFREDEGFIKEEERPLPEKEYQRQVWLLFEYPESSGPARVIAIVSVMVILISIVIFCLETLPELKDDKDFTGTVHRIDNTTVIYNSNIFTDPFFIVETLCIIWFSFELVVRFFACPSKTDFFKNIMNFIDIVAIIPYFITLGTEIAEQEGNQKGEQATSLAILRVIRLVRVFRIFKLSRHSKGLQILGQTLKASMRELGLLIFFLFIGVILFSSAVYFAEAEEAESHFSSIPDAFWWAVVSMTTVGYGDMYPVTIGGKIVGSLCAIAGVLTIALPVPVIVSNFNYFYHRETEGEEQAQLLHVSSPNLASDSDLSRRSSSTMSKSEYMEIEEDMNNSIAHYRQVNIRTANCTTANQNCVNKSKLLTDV
T3 sequence (P17658 whole entry): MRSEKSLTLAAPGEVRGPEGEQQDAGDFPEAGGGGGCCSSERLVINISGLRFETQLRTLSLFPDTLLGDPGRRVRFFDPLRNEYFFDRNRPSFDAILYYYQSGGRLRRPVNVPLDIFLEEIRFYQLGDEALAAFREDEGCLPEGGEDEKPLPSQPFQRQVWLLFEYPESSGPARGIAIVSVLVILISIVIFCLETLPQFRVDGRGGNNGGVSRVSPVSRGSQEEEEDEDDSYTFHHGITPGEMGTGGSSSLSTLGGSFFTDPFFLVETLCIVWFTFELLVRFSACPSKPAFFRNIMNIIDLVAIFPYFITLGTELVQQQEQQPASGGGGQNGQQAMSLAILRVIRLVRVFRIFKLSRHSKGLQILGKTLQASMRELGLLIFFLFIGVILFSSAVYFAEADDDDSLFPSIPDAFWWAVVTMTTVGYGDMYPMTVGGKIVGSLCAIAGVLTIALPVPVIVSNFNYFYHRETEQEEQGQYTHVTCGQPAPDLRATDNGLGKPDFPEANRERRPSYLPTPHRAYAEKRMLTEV
T2 sequence (P16389 whole entry): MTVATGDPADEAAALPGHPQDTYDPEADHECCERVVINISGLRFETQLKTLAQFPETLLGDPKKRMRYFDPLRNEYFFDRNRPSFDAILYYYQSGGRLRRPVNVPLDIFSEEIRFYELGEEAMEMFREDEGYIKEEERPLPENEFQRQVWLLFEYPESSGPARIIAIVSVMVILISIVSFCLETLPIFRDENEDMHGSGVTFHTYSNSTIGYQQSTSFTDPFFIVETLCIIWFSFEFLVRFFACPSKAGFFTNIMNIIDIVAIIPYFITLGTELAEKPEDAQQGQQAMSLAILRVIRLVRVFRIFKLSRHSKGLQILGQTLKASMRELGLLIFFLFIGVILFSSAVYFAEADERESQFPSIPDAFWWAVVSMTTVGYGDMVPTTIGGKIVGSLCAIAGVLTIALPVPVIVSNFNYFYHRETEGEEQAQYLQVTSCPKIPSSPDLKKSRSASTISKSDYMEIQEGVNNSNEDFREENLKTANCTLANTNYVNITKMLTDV

Structure (SMILES)	Selectivity ratio Kv1.1/Kv1.3 (human Kv1.1)	Selectivity ratio Kv1.2/Kv1.3 (human Kv1.2)	Selectivity ratio Kv1.6/Kv1.3 (human Kv1.6)	IC50 (Rat whole blood) [nM]
CC[C@H](C)[C@@H]1NC(=O)[C@H](C)NC(=O)[C@H](CCCCN)NC(=O)[C@H](CC(C)C)NC(=O)[C@@H]2CSSC[C@@H](C(=O)N[C@@H](Cc3ccc(O)cc3)C(=O)N3CCC[C@H]3C(=O)N[C@@H](CCCNC(=N)N)C(N)=O)NC(=O)[C@H](CCCCN)NC(=O)[C@@H]3CSSC[C@H](NC(=O)[C@H](CCC(=O)O)NC(=O)[C@H](C(C)C)NC(=O)[C@H](CO)NC(=O)[C@H](C)NC(=O)[C@H](CO)NC(=O)[C@@H](NC(=O)[C@H](CCCNC(=N)N)NC(=O)[C@H](CCSC)NC(=O)[C@H](CC(=O)O)NC(=O)[C@H](CCSC)NC(=O)[C@@H](N)CC(N)=O)CSSC[C@H](NC(=O)[C@H](CCCCN)NC(=O)CNC(=O)[C@H](Cc4ccccc4)NC(=O)[C@H]([C@@H](C)CC)NC(=O)[C@H](CO)NC(=O)CNC1=O)C(=O)N[C@@H](CCSC)C(=O)N[C@@H](CC(N)=O)C(=O)N[C@@H](CCCCN)C(=O)N[C@@H](CCCCN)C(=O)N3)C(=O)N[C@@H](CC(C)C)C(=O)N[C@@H](CCC(N)=O)C(=O)N[C@@H](CCCCN)C(=O)N2 [compound 33] (H-NMDMRCSASVECLQKCLKAIGSIFGKCMNKKCKCYPR-NH2; disulfide 6-27, 12-32, 16-34)	>7400	2163	>7400	0.76
CC[C@H](C)[C@@H]1NC(=O)[C@H](C)NC(=O)[C@H](CCCCN)NC(=O)[C@H](CC(C)C)NC(=O)[C@@H]2CSSC[C@@H](C(=O)N[C@@H](Cc3ccc(O)cc3)C(=O)N3CCC[C@H]3C(=O)N[C@@H](CCCNC(=N)N)C(N)=O)NC(=O)[C@H](CCCCN)NC(=O)[C@@H]3CSSC[C@H](NC(=O)[C@H](CCC(=O)O)NC(=O)[C@H](C(C)C)NC(=O)[C@H](CO)NC(=O)[C@H](C)NC(=O)[C@H](CO)NC(=O)[C@@H](NC(=O)[C@H](CCCNC(=N)N)NC(=O)[C@H](CCSC)NC(=O)[C@H](CC(=O)O)NC(=O)[C@H](CCSC)NC(=O)[C@@H](N)CC(N)=O)CSSC[C@H](NC(=O)[C@H](CCCCN)NC(=O)CNC(=O)[C@H](Cc4ccccc4)NC(=O)[C@H]([C@@H](C)CC)NC(=O)[C@H](CO)NC(=O)CNC1=O)C(=O)N[C@@H](CCSC)C(=O)N[C@@H](CC(N)=O)C(=O)N[C@@H](CCCCN)C(=O)N[C@@H](CCCCN)C(=O)N3)C(=O)N[C@@H](C)C(=O)N[C@@H](CCC(N)=O)C(=O)N[C@@H](CCCCN)C(=O)N2 [compound 34] (H-NMDMRCSASVECAQKCLKAIGSIFGKCMNKKCKCYPR-NH2; disulfide 6-27, 12-32, 16-34)	>22000	4897	>22000	0.41
CC[C@H](C)[C@@H]1NC(=O)[C@H](C)NC(=O)[C@H](CCCCN)NC(=O)[C@H](CC(C)C)NC(=O)[C@@H]2CSSC[C@@H](C(=O)N[C@@H](Cc3ccc(O)cc3)C(=O)N3CCC[C@H]3C(=O)N[C@@H](CCCNC(=N)N)C(N)=O)NC(=O)[C@H](CCCCN)NC(=O)[C@@H]3CSSC[C@H](NC(=O)[C@H](CCC(=O)O)NC(=O)[C@H](C(C)C)NC(=O)[C@H](CO)NC(=O)[C@H](C)NC(=O)[C@H](CO)NC(=O)[C@@H](NC(=O)[C@H](CCCNC(=N)N)NC(=O)[C@H](CCSC)NC(=O)[C@H](CC(=O)O)NC(=O)[C@H](CCSC)NC(=O)[C@@H](N)CC(N)=O)CSSC[C@H](NC(=O)[C@H](CCCCN)NC(=O)CNC(=O)[C@H](Cc4ccccc4)NC(=O)[C@H]([C@@H](C)CC)NC(=O)[C@H](CO)NC(=O)CNC1=O)C(=O)N[C@@H](CCSC)C(=O)N[C@@H](CC(N)=O)C(=O)N[C@@H](CCCCN)C(=O)N[C@@H](CCCCN)C(=O)N3)C(=O)N[C@@H](CCCCN)C(=O)N[C@@H](CCC(=O)O)C(=O)N[C@@H](CCCCN)C(=O)N2 [compound 35] (H-NMDMRCSASVECKEKCLKAIGSIFGKCMNKKCKCYPR-NH2; disulfide 6-27, 12-32, 16-34)	>10800	648	>10800	0.86
CC[C@H](C)[C@@H]1NC(=O)[C@H](C)NC(=O)[C@H](CCCCN)NC(=O)[C@H](CC(C)C)NC(=O)[C@@H]2CSSC[C@@H](C(=O)N[C@@H](Cc3ccc(O)cc3)C(=O)N3CCC[C@H]3C(=O)N[C@@H](CCCNC(=N)N)C(N)=O)NC(=O)[C@H](CCCCN)NC(=O)[C@@H]3CSSC[C@H](NC(=O)[C@H](CCC(=O)O)NC(=O)[C@H](C(C)C)NC(=O)[C@H](CO)NC(=O)[C@H](C)NC(=O)[C@H](CO)NC(=O)[C@@H](NC(=O)[C@H](CCCNC(=N)N)NC(=O)[C@H](CCSC)NC(=O)[C@H](CC(=O)O)NC(=O)[C@H](CCSC)NC(=O)[C@@H](N)CC(N)=O)CSSC[C@H](NC(=O)[C@H](CCCCN)NC(=O)CNC(=O)[C@H](Cc4ccccc4)NC(=O)[C@H](CCCCN)NC(=O)[C@H](CO)NC(=O)CNC1=O)C(=O)N[C@@H](CCSC)C(=O)N[C@@H](CC(N)=O)C(=O)N[C@@H](CCCCN)C(=O)N[C@@H](CCCCN)C(=O)N3)C(=O)N[C@@H](CCCCN)C(=O)N[C@@H](CCC(N)=O)C(=O)N[C@@H](CCCCN)C(=O)N2 [compound 38] (H-NMDMRCSASVECKQKCLKAIGSKFGKCMNKKCKCYPR-NH2; disulfide 6-27, 12-32, 16-34)	>7100	237	490	2.1
CC[C@H](C)[C@@H]1NC(=O)[C@H](C)NC(=O)[C@H](CCCCN)NC(=O)[C@H](CC(C)C)NC(=O)[C@@H]2CSSC[C@@H](C(=O)N[C@@H](Cc3ccc(O)cc3)C(=O)N3CCC[C@H]3C(=O)N[C@@H](CCCNC(=N)N)C(N)=O)NC(=O)[C@H](CCCCN)NC(=O)[C@@H]3CSSC[C@H](NC(=O)[C@H](CCC(=O)O)NC(=O)[C@H](C(C)C)NC(=O)[C@H](CO)NC(=O)[C@H](C)NC(=O)[C@H](CO)NC(=O)[C@@H](NC(=O)[C@H](CCCNC(=N)N)NC(=O)[C@H](CCSC)NC(=O)[C@H](CC(=O)O)NC(=O)[C@H](CCSC)NC(=O)[C@@H](N)CC(N)=O)CSSC[C@H](NC(=O)[C@H](CCCCN)NC(=O)CNC(=O)[C@H](Cc4ccccc4)NC(=O)[C@H]([C@@H](C)CC)NC(=O)[C@H](CO)NC(=O)CNC1=O)C(=O)N[C@@H](CCSC)C(=O)N[C@@H](CC(N)=O)C(=O)NCC(=O)N[C@@H](CCCCN)C(=O)N3)C(=O)N[C@@H](CCCCN)C(=O)N[C@@H](CCC(N)=O)C(=O)N[C@@H](CCCCN)C(=O)N2 [compound 40] (H-NMDMRCSASVECKQKCLKAIGSIFGKCMNGKCKCYPR-NH2; disulfide 6-27, 12-32, 16-34)	>9700	1422	>9700	1.2
